Values after ≈ are worked out from the molar mass of the structure shown.
Legend:
Format in all cases: cell-based
Actinomyces pyogenes = assay: growth inhibition of bacterial cells
From the text: (§1) This selective inhibition of the growth of eukaryotes versus prokaryotes is a useful characteristic of the compound.

[1] = tested on: Bordetella bronchiseptica; assay: growth inhibition of bacterial cells
From the text: as §1

[2] = tested on: Staphylococcus intermedius; assay: growth inhibition of bacterial cells; conditions: Staphylococcus intermedius (3 strains)
From the text: as §1

Pasteurella haemolytica = assay: growth inhibition of bacterial cells
From the text: as §1

[3] = tested on: Sphingobacterium spritivorum; assay: growth inhibition of bacterial cells
From the text: as §1

HeLa cancer cells = assay: activity against HeLa cancer cells (toxicity, IC50)
HeLa cells = assay: MTT cytotoxicity assay, HeLa cells; conditions: 200 μM, 48 h
Procedure: (§2) In addition, when HeLa and MCF cells (breast cancer cells) were exposed to 200 μM pavetamine for 48 h, 30% cell death occurred for HeLa cells and 25% for the MCF cells. The MTT (3-(4,5-dimethyl-2-thiazolyl)-2,5-diphenyl-2H-tetrazolium bromide) assay (Sigma, St Louis, USA) was used to measure the cytotoxicity of pavettamine in these cell lines.

[4] = tested on: MCF cells (breast cancer cells); assay: MTT cytotoxicity assay, MCF cells; conditions: 200 μM, 48 h
Procedure: as §2

human lymphocytes = assay: toxicity to human lymphocytes (IC50); conditions: Lymphocyte
[5] = tested on: Selenastrum capricornumtum; assay: algal growth inhibition test; conditions: 1 mM to 0.063 mM, 72 hrs exposure, optical density relative to control
Procedure: The algal (Selenastrum capricornumtum) growth inhibition test involves exposing the unicellular algae to the toxicant for 72 hrs, under defined conditions: at a temperature of 24° C. and in a test facility fitted with a cool white fluorescent light with a light intensity of ±4000 lux. The test facility is free of vapour, odours and dust which may be toxic to the algae.
Growth inhibition is measured as a reduction in growth rate relative to the control and is determined in terms of optical density. Definitive tests (testing serial dilutions) are carried out. The percentage growth inhibition in each test is usually reported as Effect or the 72 hr EC20 or EC50.

Penicillium expansum = assay: growth inhibition of fungal and yeast cells
From the text: as §1

Aspergillus clavatus = assay: growth inhibition of fungal and yeast cells
From the text: as §1

Debaryomyces hansenii = assay: growth inhibition of fungal and yeast cells
From the text: as §1

Rhodotorula mucilaginosa = assay: growth inhibition of fungal and yeast cells
From the text: as §1

SMILES: NC[C@@H](O)C[C@@H](O)CNC[C@H](O)C[C@H](O)CN [pavettamine, (2S,4R,8R,10S)-1,11-diamino-6-aza-undecane-2,4,8,10-tetraol]
- inhibitory activity towards growth of bacterial cells (Actinomyces pyogenes): no inhibitory activity
- inhibitory activity towards growth of bacterial cells [1]: no inhibitory activity
- inhibitory activity towards growth of bacterial cells [2]: no inhibitory activity
- inhibitory activity towards growth of bacterial cells (Pasteurella haemolytica): no inhibitory activity
- inhibitory activity towards growth of bacterial cells [3]: no inhibitory activity
- times more toxic to HeLa cancer cells than to human lymphocytes (HeLa cancer cells; HeLa cancer cells versus human lymphocytes): 10 ×
- IC50 (HeLa cancer cells; Homo sapiens, HeLa): 0.2 µg/mL (≈ 0.796 µM)
- cell death, HeLa cells (HeLa cells): 30%
- cell death, MCF cells [4]: 25%
- IC50 (human lymphocytes): 2 µg/mL (≈ 7.96 µM)
- growth inhibition of algae [5]: ≥ 98%
- inhibitory activity towards growth of fungal and yeast cells (Penicillium expansum): inhibitory activity
- inhibitory activity towards growth of fungal and yeast cells (Aspergillus clavatus): inhibitory activity
- inhibitory activity towards growth of fungal and yeast cells (Debaryomyces hansenii): inhibitory activity
- inhibitory activity towards growth of fungal and yeast cells (Rhodotorula mucilaginosa): inhibitory activity

— patent publication US20110251289A1, “NEW COMPOUNDS FOR THE TREATMENT OF CANCER” (CSIR, priority 2008, published 2011)
